For one data set, the system named is dd-strain male mice. As to the kind of experiment: Acute toxicity test (minimum lethal dose, oral). The data set is classed as in vivo. The settings on record: oral administration, three mice per group, mortality seven days after administration. On the procedure: Test compounds were orally administered to groups of dd-strain male mice weighing 20 ± 1 g, each group consisting of three mice. Seven days after the administration, minimum lethal dose (MLD) of each compound was determined by observing the mortality.
`CCn1c(=O)c2c(nc(/C=C/c3ccc(F)c(F)c3)n2C)n(CC)c1=O` [Compound 54, (E)-8-(3,4-Difluorostyryl)-1,3-diethyl-7-methylxanthine] showed an MLD above 300 mg/kg.
On the same count and under the same terms, the figure for `CCn1c(=O)c2[nH]c(/C=C/c3ccc(OC)c(Br)c3)nc2n(CC)c1=O` [Compound 55, (E)-8-(3-Bromo-4-methoxystyryl)-1,3-diethylxanthine] is above 100 mg/kg; for `CCn1c(=O)c2c(nc(/C=C/c3ccc(OC)c(Br)c3)n2C)n(CC)c1=O` [Compound 56, (E)-8-(3-Bromo-4-methoxystyryl)-1,3-diethyl-7-methylxanthine] it is above 100 mg/kg.
Molecule `COc1ccc(/C=C/c2nc3c(c(=O)n(C)c(=O)n3C)n2C)cc1Br` [Compound 58, (E)-8-(3-Bromo-4-methoxystyryl)caffeine] displayed an MLD above 300 mg/kg.
Still for that read-out and setting: the figure for `CCn1c(=O)c2c(nc(/C=C/c3cc(OC)c(OC)cc3Br)n2C)n(CC)c1=O` [Compound 60, (E)-8-(2-Bromo-4,5-dimethoxystyryl)-1,3-diethyl-7-methylxanthine] is above 100 mg/kg; for `CCn1c(=O)c2[nH]c(/C=C/c3cccc(OC)c3[N+](=O)[O-])nc2n(CC)c1=O` [Compound 63, (E)-1,3-Diethyl-8-(3-methoxy-2-nitrostyryl)xanthine] it is above 300 mg/kg; for `CCn1c(=O)c2[nH]c(/C=C/c3cccc(F)c3)nc2n(CC)c1=O` [Compound 65, (E)-1,3-Diethyl-8-(3-fluorostyryl)xanthine] it is above 100 mg/kg.
Same read-out and setting: for `CCn1c(=O)c2c(nc(/C=C/c3cccc(F)c3)n2C)n(CC)c1=O` [Compound 66, (E)-1,3-Diethyl-8-(3-fluorostyryl)-7-methylxanthine] the value was above 300 mg/kg; for `CCn1c(=O)c2[nH]c(/C=C/c3ccc(N(C)C)cc3)nc2n(CC)c1=O` [Compound 99, (E)-8-[4-(N,N-Dimethylamino)styryl]-1,3-diethylxanthine], above 100 mg/kg.

The target in a further data set is T1, A₂ receptor (Rattus norvegicus, UniProt P30543).
T1 construct: from tissue; host or cells: rat corpus striatum membrane preparation
T1 sequence (P30543 whole entry): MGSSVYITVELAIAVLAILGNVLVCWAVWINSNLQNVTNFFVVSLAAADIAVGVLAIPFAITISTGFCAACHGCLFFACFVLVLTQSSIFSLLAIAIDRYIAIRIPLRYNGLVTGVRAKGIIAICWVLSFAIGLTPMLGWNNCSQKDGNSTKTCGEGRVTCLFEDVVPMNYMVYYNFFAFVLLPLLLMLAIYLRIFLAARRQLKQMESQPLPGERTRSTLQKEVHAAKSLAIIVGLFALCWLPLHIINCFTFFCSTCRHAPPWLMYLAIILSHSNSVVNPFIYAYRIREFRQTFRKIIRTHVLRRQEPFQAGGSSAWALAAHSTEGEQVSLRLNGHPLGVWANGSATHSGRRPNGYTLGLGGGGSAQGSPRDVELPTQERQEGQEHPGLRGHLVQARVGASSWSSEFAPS
Nature of the data set: Adenosine A₂ receptor binding test (³H-NECA binding). The settings on record: 10⁻⁴M; ³H-NECA binding, rat corpus striatum; read-out: Inhibition (%) A₂ Receptor. How it is done: The similar procedure as in the above-described adenosine A₁ receptor binding test was repeated using rat corpus striatum to obtain the final precipitate of the tissue thereof. The precipitate was suspended in 50 mM Tris HCl buffer containing 10 mM magnesium chloride and 0.02 unit/mg tissue of adenosine deaminase (manufactured by Sigma Co.) to give a tissue concentration of 5 mg (wet weight)/ml.
The mixture solution was allowed to stand at 25°C for 120 minutes and then treated in the same manner as in the adenosine A₁ receptor binding test to determine the radioactivity bound to the A₂ receptors.
The inhibition rate of the test compound against the binding of A₂ receptor (³H-NECA binding) was calculated by the following equation: [formula] [Notes] • 1.
In the case of `CCn1c(=O)c2c(nc(/C=C/c3ccc(F)c(F)c3)n2C)n(CC)c1=O` [Compound 54, (E)-8-(3,4-Difluorostyryl)-1,3-diethyl-7-methylxanthine], the inhibition at 100 µM came to 96%.
For `CCn1c(=O)c2[nH]c(/C=C/c3ccc(OC)c(Br)c3)nc2n(CC)c1=O` [Compound 55, (E)-8-(3-Bromo-4-methoxystyryl)-1,3-diethylxanthine], the inhibition at 100 µM came to 81%.
On the same count and under the same terms, the figure for `CCn1c(=O)c2c(nc(/C=C/c3ccc(OC)c(Br)c3)n2C)n(CC)c1=O` [Compound 56, (E)-8-(3-Bromo-4-methoxystyryl)-1,3-diethyl-7-methylxanthine] is 99%; for `COc1ccc(/C=C/c2nc3c(c(=O)n(C)c(=O)n3C)n2C)cc1Br` [Compound 58, (E)-8-(3-Bromo-4-methoxystyryl)caffeine] it is 78%.
On the same count and under the same terms, for `CCn1c(=O)c2c(nc(/C=C/c3cc(OC)c(OC)cc3Br)n2C)n(CC)c1=O` [Compound 60, (E)-8-(2-Bromo-4,5-dimethoxystyryl)-1,3-diethyl-7-methylxanthine] the value was 84%.
On the same count and under the same terms, for `CCn1c(=O)c2[nH]c(/C=C/c3cccc(OC)c3[N+](=O)[O-])nc2n(CC)c1=O` [Compound 63, (E)-1,3-Diethyl-8-(3-methoxy-2-nitrostyryl)xanthine] the value was 79%.

The data set is the same for the next values; noted with them: 10⁻⁵M; ³H-NECA binding, rat corpus striatum; read-out: Inhibition (%) A₂ Receptor.
With `CCn1c(=O)c2c(nc(/C=C/c3ccc(F)c(F)c3)n2C)n(CC)c1=O` [Compound 54, (E)-8-(3,4-Difluorostyryl)-1,3-diethyl-7-methylxanthine], the inhibition at 10 µM worked out at 95%.
The same measure, in the same setting: for `CCn1c(=O)c2[nH]c(/C=C/c3ccc(OC)c(Br)c3)nc2n(CC)c1=O` [Compound 55, (E)-8-(3-Bromo-4-methoxystyryl)-1,3-diethylxanthine] the value was 77%.
The same measure, in the same setting: for `CCn1c(=O)c2c(nc(/C=C/c3ccc(OC)c(Br)c3)n2C)n(CC)c1=O` [Compound 56, (E)-8-(3-Bromo-4-methoxystyryl)-1,3-diethyl-7-methylxanthine] the value was 97%; for `COc1ccc(/C=C/c2nc3c(c(=O)n(C)c(=O)n3C)n2C)cc1Br` [Compound 58, (E)-8-(3-Bromo-4-methoxystyryl)caffeine], 84%.
On the same count and under the same terms, the figure for `CCn1c(=O)c2c(nc(/C=C/c3cc(OC)c(OC)cc3Br)n2C)n(CC)c1=O` [Compound 60, (E)-8-(2-Bromo-4,5-dimethoxystyryl)-1,3-diethyl-7-methylxanthine] is 75%; for `CCn1c(=O)c2[nH]c(/C=C/c3cccc(OC)c3[N+](=O)[O-])nc2n(CC)c1=O` [Compound 63, (E)-1,3-Diethyl-8-(3-methoxy-2-nitrostyryl)xanthine] it is 74%.

The data set is the same for the next values; noted with them: 10⁻⁶M; ³H-NECA binding, rat corpus striatum; read-out: Inhibition (%) A₂ Receptor.
As for `CCn1c(=O)c2c(nc(/C=C/c3ccc(F)c(F)c3)n2C)n(CC)c1=O` [Compound 54, (E)-8-(3,4-Difluorostyryl)-1,3-diethyl-7-methylxanthine], the inhibition at 1 µM was determined as 94%.
With `CCn1c(=O)c2[nH]c(/C=C/c3ccc(OC)c(Br)c3)nc2n(CC)c1=O` [Compound 55, (E)-8-(3-Bromo-4-methoxystyryl)-1,3-diethylxanthine], the inhibition at 1 µM amounted to 65%.
As for `CCn1c(=O)c2c(nc(/C=C/c3ccc(OC)c(Br)c3)n2C)n(CC)c1=O` [Compound 56, (E)-8-(3-Bromo-4-methoxystyryl)-1,3-diethyl-7-methylxanthine], the inhibition at 1 µM came to 92%.
The same measure, in the same setting: the figure for `CCn1c(=O)c2[nH]c(/C=C/c3cccc(F)c3)nc2n(CC)c1=O` [Compound 65, (E)-1,3-Diethyl-8-(3-fluorostyryl)xanthine] is 64%.
The same measure, in the same setting: the figure for `CCn1c(=O)c2c(nc(/C=C/c3cccc(F)c3)n2C)n(CC)c1=O` [Compound 66, (E)-1,3-Diethyl-8-(3-fluorostyryl)-7-methylxanthine] is 93%.
`CCn1c(=O)c2[nH]c(/C=C/c3ccc(N(C)C)cc3)nc2n(CC)c1=O` [Compound 99, (E)-8-[4-(N,N-Dimethylamino)styryl]-1,3-diethylxanthine]: the inhibition at 1 µM was found to be 64%.

Still in this data set, the particulars now being: 10⁻⁷M; ³H-NECA binding, rat corpus striatum; read-out: Inhibition (%) A₂ Receptor.
Regarding `CCn1c(=O)c2c(nc(/C=C/c3ccc(F)c(F)c3)n2C)n(CC)c1=O` [Compound 54, (E)-8-(3,4-Difluorostyryl)-1,3-diethyl-7-methylxanthine], the inhibition at 0.1 µM amounted to 63%.
Consider `CCn1c(=O)c2[nH]c(/C=C/c3ccc(OC)c(Br)c3)nc2n(CC)c1=O` [Compound 55, (E)-8-(3-Bromo-4-methoxystyryl)-1,3-diethylxanthine], for which the inhibition at 0.1 µM turned out to be 56%.
`CCn1c(=O)c2c(nc(/C=C/c3ccc(OC)c(Br)c3)n2C)n(CC)c1=O` [Compound 56, (E)-8-(3-Bromo-4-methoxystyryl)-1,3-diethyl-7-methylxanthine]: the inhibition at 0.1 µM is 74%.
As to `CCn1c(=O)c2[nH]c(/C=C/c3cccc(F)c3)nc2n(CC)c1=O` [Compound 65, (E)-1,3-Diethyl-8-(3-fluorostyryl)xanthine], the inhibition at 0.1 µM stood at 64%.
With `CCn1c(=O)c2c(nc(/C=C/c3cccc(F)c3)n2C)n(CC)c1=O` [Compound 66, (E)-1,3-Diethyl-8-(3-fluorostyryl)-7-methylxanthine], the inhibition at 0.1 µM came out at 78%.
Still for that read-out and setting: the figure for `CCn1c(=O)c2[nH]c(/C=C/c3ccc(N(C)C)cc3)nc2n(CC)c1=O` [Compound 99, (E)-8-[4-(N,N-Dimethylamino)styryl]-1,3-diethylxanthine] is 25%.

A further data set has as its system Haloperidol-Induced Catalepsy. As to the kind of experiment: Effect on haloperidol-induced catalepsy. The data set is classed as in vivo, mice. Conditions: of five mice, catalepsy score not more than 4 points; 10 mg/kg orally. How it is done:
Haloperidol (Janssen Pharmaceutica) suspended in 0.3% CMC was intraperitoneally administered to each mouse at a dose of 1.0 mg/kg. Test compounds were suspended in 0.3% CMC or in injectable distilled water (Otsuka Pharmaceutical Co., Ltd.) containing Tween 80. L-DOPA (Kyowa Hakko Kogyo Co., Ltd.) and benserazide hydrochloride (Kyowa Hakko Kogyo Co., Ltd.) were suspended in 0.3% CMC. One hour after the haloperidol administration, the test compound suspensions and the control suspension [injectable distilled water (Otsuka Pharmaceutical Co., Ltd.) containing Tween 80] containing no test compound were orally administered to separate groups of the mice (0.1 ml per 10 g of body weight). One hour after the administration of the test compound, the forelimbs of each mouse and subsequently the hindlimbs of the same mouse were placed on a 4.5 cm-high, 1.0 cm-wide bar and catalepsy was estimated. […] The catalepsy score and the standard of judgment are shown below. […] The number of the animals showing remission against catalepsy is the number of the mice for which the catalepsy score was not more than 4 points. […] The ED₅₀ values were calculated by Probit analysis.
On to `CCn1c(=O)c2c(nc(/C=C/c3ccc(F)c(F)c3)n2C)n(CC)c1=O` [Compound 54, (E)-8-(3,4-Difluorostyryl)-1,3-diethyl-7-methylxanthine], for which the “Number of the Animals Showing Remission” value was 5.
Still for that read-out and setting: for `CCn1c(=O)c2c(nc(/C=C/c3ccc(OC)c(Br)c3)n2C)n(CC)c1=O` [Compound 56, (E)-8-(3-Bromo-4-methoxystyryl)-1,3-diethyl-7-methylxanthine] the value was 5; for `CCn1c(=O)c2[nH]c(/C=C/c3cccc(OC)c3[N+](=O)[O-])nc2n(CC)c1=O` [Compound 63, (E)-1,3-Diethyl-8-(3-methoxy-2-nitrostyryl)xanthine], 3.

Still in this data set, the particulars now being: rate of decrease in total score based on control group; 10 mg/kg orally.
`CCn1c(=O)c2c(nc(/C=C/c3ccc(F)c(F)c3)n2C)n(CC)c1=O` [Compound 54, (E)-8-(3,4-Difluorostyryl)-1,3-diethyl-7-methylxanthine]: the “Remission Rate (%)” value is 28%.
Consider `CCn1c(=O)c2c(nc(/C=C/c3ccc(OC)c(Br)c3)n2C)n(CC)c1=O` [Compound 56, (E)-8-(3-Bromo-4-methoxystyryl)-1,3-diethyl-7-methylxanthine], for which the “Remission Rate (%)” value is 44%.
On the same count and under the same terms, for `CCn1c(=O)c2[nH]c(/C=C/c3cccc(OC)c3[N+](=O)[O-])nc2n(CC)c1=O` [Compound 63, (E)-1,3-Diethyl-8-(3-methoxy-2-nitrostyryl)xanthine] the value was 32%.

Still in this data set, the particulars now being: total catalepsy score of five mice (25 points at the full); 10 mg/kg orally, haloperidol 1.0 mg/kg i.p.
Regarding `CCn1c(=O)c2c(nc(/C=C/c3ccc(F)c(F)c3)n2C)n(CC)c1=O` [Compound 54, (E)-8-(3,4-Difluorostyryl)-1,3-diethyl-7-methylxanthine], the “Total Score” value is reported as 18.
On the same count and under the same terms, for `CCn1c(=O)c2c(nc(/C=C/c3ccc(OC)c(Br)c3)n2C)n(CC)c1=O` [Compound 56, (E)-8-(3-Bromo-4-methoxystyryl)-1,3-diethyl-7-methylxanthine] the value was 14; for `CCn1c(=O)c2[nH]c(/C=C/c3cccc(OC)c3[N+](=O)[O-])nc2n(CC)c1=O` [Compound 63, (E)-1,3-Diethyl-8-(3-methoxy-2-nitrostyryl)xanthine], 17.

What is called inhibition is the percentage by which the read-out fell short of the control.

Source of the values: patent EP0590919A1, “Therapeutic agents for parkinson's disease” (KYOWA HAKKO KOGYO CO., LTD., priority 1992, dated 1994).
